PubChem BioAssay (NCI)
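Results reflect a 48-hour exposure of cells in 96-well plates to compound at five concentrations. TGI is the concentration that stops growth completely.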

How the values were obtained:
Test in all cases: NCI tumour cell line growth inhibition, 48 h
MDA-MB-435 = tested on: MDA-MB-435
M14 melanoma = tested on: M14 melanoma
HL-60(TB) leukemia = tested on: HL-60(TB) leukemia
OVCAR-4 ovarian = tested on: OVCAR-4 ovarian
HOP-92 NSCLC = tested on: HOP-92 NSCLC
SK-MEL-5 melanoma = tested on: SK-MEL-5 melanoma
MOLT-4 leukemia = tested on: MOLT-4 leukemia
786-0 renal = tested on: 786-0 renal
SF-295 CNS = tested on: SF-295 CNS

Row | SMILES | TGI (MDA-MB-435) [µM] | TGI (M14 melanoma) [µM] | TGI (HL-60(TB) leukemia) [µM] | TGI (OVCAR-4 ovarian) [µM] | TGI (HOP-92 NSCLC) [µM] | TGI (SK-MEL-5 melanoma) [µM] | TGI (MOLT-4 leukemia) [µM] | TGI (786-0 renal) [µM] | TGI (SF-295 CNS) [µM]
1 | CCCCC[C@H](O)[C@H](C)C=C1SCCCS1 | > 100 | > 100 | > 100 | > 100 | > 100 | > 100 | > 100 | > 100 | > 100
2 | O=C1C/C(=C\O)C(=O)c2ccccc2N1 | > 100 | > 100 | > 100 | > 100 | > 100 | > 100 | > 100 | > 100 | > 100
3 | O=C1c2ccccc2S(=O)(=O)c2ccccc21 | > 100 | > 100 | > 100 | > 100 | > 100 | > 100 | > 100 | > 100 | > 100
4 | C#CC(C)(C)Oc1cc(OC)c2c(=O)c3ccccc3n(C)c2c1 | 26.9 |  | 28.7 | 41.8 |  | 23.4 | 22.3 | > 100 | 51.8
5 | CCOC(=O)/C=C1\Nc2ccccc2C12CCc1c([nH]c3ccccc13)C2C(=O)OCC (stereo not given) | 40.5 | > 100 | > 100 | > 100 |  | > 100 | > 100 | > 100 | > 100
6 | CCOC(=O)C1C/C(C)=C(/C)SCCCS1 (stereo not given) | > 100 | > 100 | 54.6 | > 100 | > 100 | > 100 | > 100 | > 100 | > 100
7 | O=C1c2ccccc2NC2C(O)c3ccccc3N12 (stereo not given) | 31.9 | > 100 |  | > 100 | > 100 | > 100 | 58.7 | > 100 | > 100
8 | Cc1cnc(Cl)nc1C(C#N)c1nc2ccccc2n1C (stereo not given) | > 100 | > 100 |  | > 100 | > 100 | > 100 | > 100 | > 100 | > 100
9 | CCCCCCCCCCCCCCCCOCC(CC(F)(F)P(=O)(O)O)OC(C)=O (stereo not given) | > 50 | > 50 |  |  | > 50 | > 50 | > 50 | > 50 | > 50
10 | O=C1c2cc(Cl)ccc2-n2c(noc2=O)C2CSCN12 (stereo not given) | > 100 | > 100 |  | > 100 |  | > 100 | > 100 | > 100 | > 100
11 | O=c1oc2ccccc2cc1-c1nc2ccc([N+](=O)[O-])cc2o1 | > 100 | > 100 | > 100 |  | > 100 | > 100 | > 100 | > 100 | > 100
12 | CCCCCCCCCCCCOC1C(COCCN2CCCC2)OC2OC(C)(C)OC21 (stereo not given) | 3.14 | 3.25 |  | 7.6 | 2.72 | 2.95 | 10.4 | 3.08 | 3.28
13 | CC(=O)N(C(C)=O)n1c(Cc2ccc(Cl)cc2)nn(C(C)=O)c1=O | > 100 | > 100 | > 100 | > 100 |  | > 100 | > 100 | > 100 | > 100
14 | COC(=O)Cc1c(C2=Nc3ccccc3C2(O)CC(=O)OC)[nH]c2ccccc12 (stereo not given) | > 100 | > 100 | 62.7 |  | > 100 | > 100 | 71.2 | > 100 | > 100
15 | COc1ccc(Cn2nc(OCc3ccccn3)c3cc([N+](=O)[O-])ccc32)cc1 | > 100 | > 100 | > 100 |  |  | > 100 | > 100 | > 100 | > 100
16 | O=C(C[C@@H]1NCCC[C@H]1O)Cn1cnc2cc(Br)c(Cl)cc2c1=O | 0.076 | 0.0821 |  | 0.0809 | 0.11 | 0.0473 | > 100 | 0.135 | 0.337
17 | CSc1c(C(C)=O)c(O)n(-c2ccc(Cl)cc2)c(=O)c1C#N | > 100 | > 100 | 46.9 | > 100 |  | > 100 | 55.3 | > 100 | 
18 | C=CCc1c(O)c2ccccc2[nH]c1=O | > 100 |  | > 100 | > 100 | > 100 | > 100 | > 100 | > 100 | > 100
19 | C=C[C@]1(C)CC[C@]2(C)C(CC[C@@]3(C)C2C[C@H](O)[C@H](O)[C@@]3(C)O)C1 (stereo not given in full) | > 100 | > 100 | > 100 |  |  | > 100 | > 100 | > 100 | > 100
20 | COc1ccc(/C=N/Nc2[nH]c(=S)nc3[nH]ncc23)cc1 | > 100 | > 100 | > 100 | > 100 |  | > 100 | > 100 | > 100 | > 100
21 | O=C(Cn1c2ccc(Br)cc2c2nc3ccccc3nc21)NC1CCCCC1 | > 100 | > 100 |  | > 100 | > 100 | > 100 | > 100 | > 100 | > 100
22 | Oc1c2cccc1Cc1cccc3c1OCCOCCOCCOCCOc1c(cccc1Cc1cccc(c1O)C3)C2 | > 100 | > 100 |  | > 100 | > 100 | > 100 | > 100 | > 100 | > 100
23 | N#Cc1c(N)c(-c2ccc(Cl)cc2)c(F)c2ccccc12 | > 100 | > 100 |  | > 100 | 59.4 | > 100 |  | > 100 | > 100
24 | CN(C)c1ccc(/C=C(\NC(=O)c2ccccc2)C(=O)Nc2ccccc2C(=O)NN2C(=O)CSC2c2ccc(N(C)C)cc2)cc1 (stereo not given) | > 100 | > 100 | > 100 |  | > 100 | > 100 | > 100 | > 100 | > 100
25 | N#Cc1c(=O)c2cccnc2n2c1[nH]c1ccccc12 | > 100 | > 100 | > 100 | > 100 | 68.4 |  | > 100 | > 100 | > 100
26 | COc1ccc(N2C(=O)C3c4[nH]c5ccc(C)cc5c4C4CCC(C(C)C)CC4C3C2=O)cc1 (stereo not given) | > 100 | > 100 |  | > 100 | > 100 | > 100 | > 100 | > 100 | > 100
